Source: US6403788B1, “Non-genotoxic metalloporphyrins as synthetic catalytic scavengers of reactive oxygen species” (Eukarion, Inc., priority 2000, dated 2002)

Tests used:
[1] = system: ΦX 174 DNA Plasmid (Form I); test: Cleavage of ΦX 174 DNA plasmid (form I), activation with ascorbate in the presence of air; type: biochemical, phage ΦX 174; details: DNA 3.5 nM, Asc. 1 mM
Source text: (§1) The DNA cleavage activity was quantified in terms of number of single-strand breaks per DNA molecule according to the equation […], Io=% form I (supercoiled DNA) in the DNA control, and I=% form I in the experiment (see Bernadou et al, Biochemistry, 28: 7268-7275, (1989)). This assay is very sensitive and is able to detect very low levels of DNA activity. S values less than S=1.0 are indicative of very low DNA cleavage activity when the compounds are at a concentration of equal to or less than 1000 nM and KHSO5 is present at a concentration of equal to or less than 100 μM.
(§2) ΦX 174 DNA digestion conditions for standard experiments were as follows: commercially available DNA was diluted to 50 μg/mL in phosphate buffer (10 mM, pH 7.5). The reaction involved 5 μL of ΦX 174 DNA (50 μg/mL, 74.8 μM in base pairs), 5 μL of 40 mM phosphate buffer, pH 7.5 with 400 mM NaCl, 5 μL of metalloporphyrin in double-distilled water or 5 μL of iron-bleomycin complex in double-distilled water, and 5 μL of KHSO5 or 5 μL of H2O2 or 5 μL of ascorbate in double-distilled water. Preincubation of DNA and metalloporphyrins or iron-bleomycin complex was performed for about 15 min. The digestion time in the presence of KHSO5 was 10 min, of H2O2 was 30 min and of ascorbate was 30 min at 20° C. DNA cleavage was monitored by agarose gel electrophoresis. Reactions with KHSO5 were first quenched by 2 μL of 100 mM Hepes buffer, pH 8. In all cases, reactions were quenched by 5 μL of a stopping reagent. The stopping reagent consisted of 250 mM Hepes buffer, pH 7.4, containing 75% glycerol and 0.05% bromophenol blue. Reaction mixtures were then run in 0.8% agarose slab horizontal gel containing ethidium bromide […], at constant current (25 mA for 15h), in 89 mM Tris-borate buffer and 2.5 mM EDTA pH 8.3. Bands were located by WV light (254 nm), photographed, and quantitated by microdensitometry. The correction coefficient 1.47±0.30 was used for decreased stainability of form I DNA vs form II DNA and form III DNA.

[2] = Peroxidase activity, ABTS oxidation; type: biochemical; details: 10 μM compound, 200 μM hydrogen peroxide, 500 μM ABTS, pH 8.1, 740 nm
Description: Peroxidase activity was measured by incubating 10 μM compound, 200 μM hydrogen peroxide and 500 μM ABTS in 50 mM sodium phosphate, pH 8.1. The rate of ABTS oxidation was monitored at 740 nm and initial rates (change in absorbance per min.) determined.

[3] = Catalase activity, hydrogen peroxide consumed at 20 minutes; type: biochemical; details: over 20 minutes; 10 μM compound, 100 μM hydrogen peroxide, 40 mM sodium phosphate pH 7.4
Description: (§3) Catalase activity was measured by incubating the sample compound with hydrogen peroxide and determining the amount of hydrogen peroxide remaining after a period of time using a colorimetric peroxidase-coupled assay method. 10 μM sample compound and 100 μM hydrogen peroxide in 40 mM sodium phosphate pH 7.4 were incubated together at ambient temperature in a multi-well plate. After the desired reaction period had elapsed, 20 μl of peroxidase/ABTS reagent was added (peroxidase/ABTS reagent contained 100 μl of 50 mM Na phosphate, pH 7.4, 1 mg horseradish peroxidase (1310 U/mg) and […]). After five minutes, absorbance at 750 nm was determined. The amount of hydrogen peroxide remaining was calculated based on a standard curve. To compare rates of catalase reaction, the amount of hydrogen peroxide consumed at 20 minutes was determined (See table III). It was also of interest to determine the total number of turnovers completed by the compound before inactivation by hydrogen peroxide. This was assayed under similar conditions, except that 15.8 μM compound was combined with 1582 μM hydrogen peroxide in 5 mM Na phosphate, pH 7.4. Reactions were allowed to proceed to completion and then the amount of hydrogen peroxide remaining was determined as described above. Results showing […] in the turnover assay (nmoles hydrogen peroxide per nmole compound) are also shown in Table III.

[4] = system: CBA/J female mice, oxazolone-induced inflammatory ear edema; test: Delayed type hypersensitivity: oxazolone-induced ear edema; type: in vivo
Source text: CBA/J female mice (Jackson Labs, Bar Harbor, ME) 7 weeks of age were pre-sensitized with 3% oxazolone (Sigma Chemical Co., St. Louis, Mo.) in 99.9% acetone, on the abdomen. After 8 days, the mice were challenged with 1.2% oxazolone topically on one ear to induce an inflammatory edema. Either Structural Formula V, Structural Formula IV at a dose of 7 nmoles/ear each, or ethanol, i.e. vehicle control (eight mice per study group), was applied topically to the ear immediately after the oxazolone challenge. Ear edema was measured by comparing the tissue water content (the wet weight minus the dry weight) of the challenged ear to that of the control ear. The percent edema (% water in the right ear-left ear) in the vehicle control was 6.5% and 2.1% and 3.9% for Structural Formula V and Structural Formula IV, respectively at a dose of 7 nmoles/ear.

[5] = Catalase turnover assay, total hydrogen peroxide consumed before inactivation; type: biochemical; details: to completion, 15.8 μM compound, 1582 μM hydrogen peroxide, 5 mM Na phosphate pH 7.4
Description: as §3

[6] = system: ΦX 174 DNA Plasmid (Form I); test: Cleavage of ΦX 174 DNA plasmid (form I), compound alone or activated with KHSO5; type: biochemical, phage ΦX 174; details: for S (single-strand breaks per DNA molecule) / form % I / form % II / form % III: DNA 3.5 nM
Source text: as §1, §2

CC[NH+](CC)CCNS(=O)(=O)c1c(C)cc(C)c(C2=C3C=CC4=[N+]3[Fe-]35[n]6c2ccc6C(c2c(C)cc(C)c(S(=O)(=O)NCC[NH+](CC)CC)c2C)=C2C=CC(=[N+]23)C(c2c(C)cc(C)c(S(=O)(=O)NCC[NH+](CC)CC)c2C)=c2ccc([n]25)=C4c2c(C)cc(C)c(S(=O)(=O)NCC[NH+](CC)CC)c2C)c1C.[Cl-].[Cl-].[Cl-].[Cl-].[Cl-] [Structural Formula V, meso-tetrakis[3-(N-(2-(N,N-diethylammonio)ethyl)aminosulfonyl)-2,4,6-trimethylphenyl]porphyrinato diaqua-iron (III) pentachloride]
S (single-strand breaks per DNA molecule) ([1]; compound 10 nM): 0.11 SSBs | form % I ([1]; compound 10 nM): 87% | form % II ([1]; compound 10 nM): 13% | form % III ([1]; compound 10 nM): 0% | S (single-strand breaks per DNA molecule) ([1]; compound 100 nM): 0.34 SSBs | form % I ([1]; compound 100 nM): 75% | form % II ([1]; compound 100 nM): 25% | form % III ([1]; compound 100 nM): 0% | S (single-strand breaks per DNA molecule) ([1]; compound 1 μM): 2.76 SSBs | form % I ([1]; compound 1 μM): 29% | form % II ([1]; compound 1 μM): 71% | form % III ([1]; compound 1 μM): 0% | PEROXIDASE Initial Rate [2]: 0.0443 change in absorbance per min. | CATALASE* Rate at 20 mins. [3]: 6.4 nmole H2O2/nmole Structural Formula compound | effect on edema compared to vehicle ([4]; 7 nmoles/ear topically): effective in reducing the percentage of edema | percent edema (% water in the right ear-left ear) ([4]; 7 nmoles/ear topically immediately after oxazolone challenge, vehicle control 6.5%): 2.1% | CATALASE** H2O2 Consumption [5]: 36.1 nmole H2O2/nmole Structural Formula compound | S (single-strand breaks per DNA molecule) ([6]; compound 10 nM, KHSO5 100 μM): 0.01 SSBs | form % I ([6]; compound 10 nM, KHSO5 100 μM): 91% | form % II ([6]; compound 10 nM, KHSO5 100 μM): 9% | form % III ([6]; compound 10 nM, KHSO5 100 μM): 0% | S (single-strand breaks per DNA molecule) ([6]; compound 10 nM, without KHSO5): 0 SSBs | form % I ([6]; compound 10 nM, without KHSO5): 92% | form % II ([6]; compound 10 nM, without KHSO5): 8% | form % III ([6]; compound 10 nM, without KHSO5): 0% | S (single-strand breaks per DNA molecule) ([6]; compound 100 nM, KHSO5 100 μM): 0.03 SSBs | form % I ([6]; compound 100 nM, KHSO5 100 μM): 90% | form % II ([6]; compound 100 nM, KHSO5 100 μM): 10% | form % III ([6]; compound 100 nM, KHSO5 100 μM): 0% | S (single-strand breaks per DNA molecule) ([6]; compound 100 nM, without KHSO5): 0 SSBs | form % I ([6]; compound 100 nM, without KHSO5): 92% | form % II ([6]; compound 100 nM, without KHSO5): 8% | form % III ([6]; compound 100 nM, without KHSO5): 0% | S (single-strand breaks per DNA molecule) ([6]; compound 1 μM, KHSO5 100 μM): 0.07 SSBs | form % I ([6]; compound 1 μM, KHSO5 100 μM): 87% | form % II ([6]; compound 1 μM, KHSO5 100 μM): 13% | form % III ([6]; compound 1 μM, KHSO5 100 μM): 0% | S (single-strand breaks per DNA molecule) ([6]; compound 1 μM, without KHSO5): 0.07 SSBs | form % I ([6]; compound 1 μM, without KHSO5): 87% | form % II ([6]; compound 1 μM, without KHSO5): 13% | form % III ([6]; compound 1 μM, without KHSO5): 0% | DNA cleavage activity in oxidative medium ([6]; oxidative medium (KHSO5)): do not exhibit any significant DNA cleavage activity
